Test results as given in publication PMC4742130 (2015).

Tests used:
[1] = test system: HTG22 (DNA, G4) AGGGTTAGGGTTAGGGTTAGGG; assay: SPR, Langmuir kinetic fit; conditions: 100 mM KCl; 50 mM Tris-HCl, pH 7.4, 25 °C; highest concentration 20 μM
[2] = test system: F21T (DNA, G4) GGGTTAGGGTTAGGGTTAGGG; assay: FRET melting; conditions: 60 mM KCl; 10 mM Tris-HCl, pH 7.4; 0.2 μM DNA; 1 μM compound (Figure S2A)
[3] = test system: HTG21 (DNA, G4) GGGTTAGGGTTAGGGTTAGGG; assay: CD titration; conditions: no added K+ or Na+; 10 mM Tris-HCl, pH 7.4, 25 °C; 5 μM DNA; 0 to 5 mol equiv; induces antiparallel G4
[4] = test system: hairpin duplex DNA (DNA, hairpin) TTTTTTTTTCGAATTCGTTTTTCGAATTCG; assay: SPR, Langmuir kinetic fit; conditions: 100 mM KCl; 50 mM Tris-HCl, pH 7.4, 25 °C; highest concentration 20 μM

| SMILES | KD [1] | other results |
| --- | --- | --- |
| COc1ccc2cc3[n+](cc2c1NCCCN1CCCC1)CCc1cc2c(cc1-3)OCO2 | 29 µM |  |
| COc1ccc2cc3[n+](cc2c1NCCCN1CCCCC1)CCc1cc2c(cc1-3)OCO2 | 149 µM |  |
| COc1ccc2cc3[n+](cc2c1NCCN1CCCCC1)CCc1cc2c(cc1-3)OCO2 | 10.8 µM |  |
| COc1ccc2cc3[n+](cc2c1NCCO)CCc1cc2c(cc1-3)OCO2 | 680 µM |  |
| COc1ccc2cc3[n+](cc2c1OC)CCc1cc2c(cc1-3)OCO2 | 170 µM | binding [2]: weak |
| COc1ccc2cc3[n+](cc2c1OCCCCCCCl)CCc1cc2c(cc1-3)OCO2 |  | binding [3]: yes; binding [1]: yes |
| COc1ccc2cc3[n+](cc2c1OCCCNC(=O)C(N)CCCCN)CCc1cc2c(cc1-3)OCO2 (stereo not shown) | 7.57 µM | KD [4]: 28900 µM |
| COc1ccc2cc3[n+](cc2c1OCCCNC(=O)C(N)CCCNC(=N)N)CCc1cc2c(cc1-3)OCO2 (stereo not shown) | 10.5 µM | KD [4]: 13900 µM |
| COc1ccc2cc3[n+](cc2c1OCCN)CCc1cc2c(cc1-3)OCO2 | 133 µM |  |
